# What was measured:
# Type in all cases: functional
# Details in all cases: time 1 weeks
# [1] = test system: Mycobacterium tuberculosis; assay: Antimycobacterial activity against high-grade rifampicin resistant Mycobacterium tuberculosis clinical isolate harboring rpoB S531L mutant incubated for 1 week by resazurin dye based fluorescence analysis
# [2] = test system: Mycobacterium tuberculosis; assay: Antimycobacterial activity against high-grade isoniazid, rifampicin, ethambutol and pyrazinamide resistant Mycobacterium tuberculosis clinical isolate harboring mutations in inhA, katG, rpoB H526D, eis genes incubated for 1 week by resazurin dye based fluorescence analysis
# [3] = test system: Mycobacterium tuberculosis; assay: Antimycobacterial activity against low-grade isoniazid resistant Mycobacterium tuberculosis clinical isolate harboring mutation in inhA promoter region incubated for 1 week by resazurin dye based fluorescence analysis
# [4] = test system: Mycobacterium tuberculosis; assay: Antimycobacterial activity against high-grade isoniazid resistant Mycobacterium tuberculosis clinical isolate harboring katG S315T mutant incubated for 1 week by resazurin dye based fluorescence analysis
SMILES,MIC50 [1] [µM],MIC50 [2] [µM],MIC50 [3] [µM],MIC50 [4] [µM]
O=C1O[C@@H](CNS(=O)(=O)c2cccs2)CN1c1ccc(N2CCOCC2)c(F)c1,3.32,7.01,1.98,4.52
O=C(NC[C@H]1CN(c2ccc(N3CCOCC3)c(F)c2)C(=O)O1)C1CC1,0.82,1.99,0.33,1.53
O=C(NC[C@H]1CN(c2ccc(N3CCOCC3)c(F)c2)C(=O)O1)c1cccs1,2.78,5.01,1.78,4.01
CCS(=O)(=O)NC[C@H]1CN(c2ccc(N3CCOCC3)c(F)c2)C(=O)O1,0.24,0.92,0.14,0.53
CS(=O)(=O)NC[C@H]1CN(c2ccc(N3CCOCC3)c(F)c2)C(=O)O1,1.82,8.83,0.85,10.35
NNC(=O)c1ccncc1 [ISONIAZID],23.03,>100,0.98,11.06
CC(=O)NC[C@H]1CN(c2ccc(N3CCOCC3)c(F)c2)C(=O)O1 [LINEZOLID],0.24,0.81,0.12,0.42
CO[C@H]1/C=C/O[C@@]2(C)Oc3c(C)c(O)c4c(O)c(c(/C=N/N5CCN(C)CC5)c(O)c4c3C2=O)NC(=O)/C(C)=C\C=C\[C@H](C)[C@H](O)[C@@H](C)[C@@H](O)[C@@H](C)[C@H](OC(C)=O)[C@@H]1C [RIFAMPIN],28.15,>100,<0.04,<0.04
